This is an account of results in the supplement of paper PMC10307832.

The first assay concerns HCC-44. The assay is described as follows: relative viability (nuclei count vs DMSO), 5 days (fraction); higher = more cells survive. The note with it: first compound 6.325 µM. The procedure, abridged:
(§1)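 Medians of duplicate plates are given as relative viability. That measure is the nuclei count in treated wells divided by the count in vehicle wells. Counts were taken on 4× images of lung cancer cell lines in 1536-well plates, 5 days after pin-tool dosing the day after seeding with one drug alone or a fixed anchor-drug dose plus five library-drug doses (not always all listed) in √10 steps.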
In turn, `COCC1(CO)C(=O)C2CCN1CC2` (stereo unspecified) [PRIMA-1MET] + O=C(CCCCCCC(=O)Nc1ccccc1)NO [Vorinostat] (partner 1 µM) yielded a relative viability of 1.18.
The same measure, in the same setting: to `COCC1(CO)C(=O)C2CCN1CC2` (stereo unspecified) [PRIMA-1MET] + Cc1cc(Nc2cc(N3CCN(C)CC3)nc(Sc3ccc(NC(=O)C4CC4)cc3)n2)n[nH]1 [Tozasertib] (partner 0.1 µM) belongs 1.01; to `COCC1(CO)C(=O)C2CCN1CC2` (stereo unspecified) [PRIMA-1MET] + COc1cccc2cc(-c3nc([C@H]4CC[C@H](C(=O)O)CC4)n4ncnc(N)c34)[nH]c12 [OSI-027] (partner 0.5 µM), 0.397.

The assay is the same for the next values; noted with them: first compound 20 µM.
`COCC1(CO)C(=O)C2CCN1CC2` (stereo unspecified) [PRIMA-1MET] + CS(=O)(=O)CCNCc1ccc(-c2ccc3ncnc(Nc4ccc(OCc5cccc(F)c5)c(Cl)c4)c3c2)o1 [Lapatinib] (partner 2 µM) returned a relative viability of 0.994.
The same measure, in the same setting: to `COCC1(CO)C(=O)C2CCN1CC2` (stereo unspecified) [PRIMA-1MET] + O=C(CCCCCCC(=O)Nc1ccccc1)NO [Vorinostat] (partner 1 µM) belongs 1.06; to `COCC1(CO)C(=O)C2CCN1CC2` (stereo unspecified) [PRIMA-1MET] + Cc1cc(Nc2cc(N3CCN(C)CC3)nc(Sc3ccc(NC(=O)C4CC4)cc3)n2)n[nH]1 [Tozasertib] (partner 0.1 µM), 0.827; to `COCC1(CO)C(=O)C2CCN1CC2` (stereo unspecified) [PRIMA-1MET] + COc1cccc2cc(-c3nc([C@H]4CC[C@H](C(=O)O)CC4)n4ncnc(N)c34)[nH]c12 [OSI-027] (partner 0.5 µM), 0.485.

Another assay concerns HCC-78. The description is as above. The conditions noted are these: first compound 0.2 µM. The procedure, abridged: as §1
In turn, `COCC1(CO)C(=O)C2CCN1CC2` (stereo unspecified) [PRIMA-1MET] + CS(=O)(=O)CCNCc1ccc(-c2ccc3ncnc(Nc4ccc(OCc5cccc(F)c5)c(Cl)c4)c3c2)o1 [Lapatinib] (partner 2 µM) displayed a relative viability of 0.984.
Still for that read-out and setting: to `COCC1(CO)C(=O)C2CCN1CC2` (stereo unspecified) [PRIMA-1MET] + O=C(CCCCCCC(=O)Nc1ccccc1)NO [Vorinostat] (partner 1 µM) belongs 0.624; to `COCC1(CO)C(=O)C2CCN1CC2` (stereo unspecified) [PRIMA-1MET] + Cc1cc(Nc2cc(N3CCN(C)CC3)nc(Sc3ccc(NC(=O)C4CC4)cc3)n2)n[nH]1 [Tozasertib] (partner 0.1 µM), 0.47; to `COCC1(CO)C(=O)C2CCN1CC2` (stereo unspecified) [PRIMA-1MET] + COc1cccc2cc(-c3nc([C@H]4CC[C@H](C(=O)O)CC4)n4ncnc(N)c34)[nH]c12 [OSI-027] (partner 0.5 µM), 0.385.

The assay is the same for the next values; noted with them: first compound 0.6325 µM.
`COCC1(CO)C(=O)C2CCN1CC2` (stereo unspecified) [PRIMA-1MET] + CS(=O)(=O)CCNCc1ccc(-c2ccc3ncnc(Nc4ccc(OCc5cccc(F)c5)c(Cl)c4)c3c2)o1 [Lapatinib] (partner 2 µM) had a relative viability of 0.539.
On the same count and under the same terms, to `COCC1(CO)C(=O)C2CCN1CC2` (stereo unspecified) [PRIMA-1MET] + O=C(CCCCCCC(=O)Nc1ccccc1)NO [Vorinostat] (partner 1 µM) belongs 0.407; to `COCC1(CO)C(=O)C2CCN1CC2` (stereo unspecified) [PRIMA-1MET] + Cc1cc(Nc2cc(N3CCN(C)CC3)nc(Sc3ccc(NC(=O)C4CC4)cc3)n2)n[nH]1 [Tozasertib] (partner 0.1 µM), 0.414.
Same read-out and setting: to `COCC1(CO)C(=O)C2CCN1CC2` (stereo unspecified) [PRIMA-1MET] + COc1cccc2cc(-c3nc([C@H]4CC[C@H](C(=O)O)CC4)n4ncnc(N)c34)[nH]c12 [OSI-027] (partner 0.5 µM) belongs 0.345.

The assay is the same for the next values; noted with them: first compound 2 µM.
Regarding `COCC1(CO)C(=O)C2CCN1CC2` (stereo unspecified) [PRIMA-1MET] + O=C(CCCCCCC(=O)Nc1ccccc1)NO [Vorinostat] (partner 1 µM), the relative viability turned out to be 0.392.

The same assay, now with this note: first compound 6.325 µM.
The compound `COCC1(CO)C(=O)C2CCN1CC2` (stereo unspecified) [PRIMA-1MET] + CS(=O)(=O)CCNCc1ccc(-c2ccc3ncnc(Nc4ccc(OCc5cccc(F)c5)c(Cl)c4)c3c2)o1 [Lapatinib] (partner 2 µM) had a relative viability of 0.78.
On the same count and under the same terms, to `COCC1(CO)C(=O)C2CCN1CC2` (stereo unspecified) [PRIMA-1MET] + O=C(CCCCCCC(=O)Nc1ccccc1)NO [Vorinostat] (partner 1 µM) belongs 0.403; to `COCC1(CO)C(=O)C2CCN1CC2` (stereo unspecified) [PRIMA-1MET] + Cc1cc(Nc2cc(N3CCN(C)CC3)nc(Sc3ccc(NC(=O)C4CC4)cc3)n2)n[nH]1 [Tozasertib] (partner 0.1 µM), 0.385; to `COCC1(CO)C(=O)C2CCN1CC2` (stereo unspecified) [PRIMA-1MET] + COc1cccc2cc(-c3nc([C@H]4CC[C@H](C(=O)O)CC4)n4ncnc(N)c34)[nH]c12 [OSI-027] (partner 0.5 µM), 0.339.

Still in this assay, the particulars now being: first compound 20 µM.
Compound `COCC1(CO)C(=O)C2CCN1CC2` (stereo unspecified) [PRIMA-1MET] + CS(=O)(=O)CCNCc1ccc(-c2ccc3ncnc(Nc4ccc(OCc5cccc(F)c5)c(Cl)c4)c3c2)o1 [Lapatinib] (partner 2 µM) came in with a relative viability of 0.686.
In the case of `COCC1(CO)C(=O)C2CCN1CC2` (stereo unspecified) [PRIMA-1MET] + O=C(CCCCCCC(=O)Nc1ccccc1)NO [Vorinostat] (partner 1 µM), the relative viability stood at 0.102.
The same measure, in the same setting: to `COCC1(CO)C(=O)C2CCN1CC2` (stereo unspecified) [PRIMA-1MET] + Cc1cc(Nc2cc(N3CCN(C)CC3)nc(Sc3ccc(NC(=O)C4CC4)cc3)n2)n[nH]1 [Tozasertib] (partner 0.1 µM) belongs 0.228; to `COCC1(CO)C(=O)C2CCN1CC2` (stereo unspecified) [PRIMA-1MET] + COc1cccc2cc(-c3nc([C@H]4CC[C@H](C(=O)O)CC4)n4ncnc(N)c34)[nH]c12 [OSI-027] (partner 0.5 µM), 0.199.

In a further assay the test system is HOP-62. The description is as above. The note with it: first compound 0.2 µM. The procedure, abridged:
as §1
Turning to `COCC1(CO)C(=O)C2CCN1CC2` (stereo unspecified) [PRIMA-1MET] + CS(=O)(=O)CCNCc1ccc(-c2ccc3ncnc(Nc4ccc(OCc5cccc(F)c5)c(Cl)c4)c3c2)o1 [Lapatinib] (partner 2 µM), the relative viability stood at 1.17.
The same measure, in the same setting: to `COCC1(CO)C(=O)C2CCN1CC2` (stereo unspecified) [PRIMA-1MET] + O=C(CCCCCCC(=O)Nc1ccccc1)NO [Vorinostat] (partner 1 µM) belongs 0.59.
